Tested on: recombinant NL4-3 virus (Renilla luciferase in nef, Gag P373S)
Assay: HIV cell culture assay (luciferase activity in MT-2 cells infected with NLRluc recombinant virus)
Format: cell-based
Settings: NL43, MT-2 cells infected 4-5 days with NLRluc recombinant virus, class symbol
Outline: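 MT-2 cells in RPMI/10% FBS were infected with recombinant NL4-3 (NLRluc), produced by 293T transfection and titered in MT-2 by luciferase. Serial inhibitor dilutions were present throughout a 4–5 day infection. Antiviral activity was quantified as Renilla luciferase signal via a modified Dual Luciferase read.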

| Structure (SMILES) | EC50 [nM] |
| --- | --- |
| C=C(C)[C@@H]1CC[C@]2(CNCCC(=O)N3CC(F)(F)C(F)(F)C3)CC[C@]3(C)[C@H](CC[C@@H]4[C@@]5(C)CC=C(c6ccc(C(=O)O)cc6)C(C)(C)[C@@H]5CC[C@]43C)[C@@H]12 [Example 106, 4-((1R,3aS,5aR,5bR,7aR,11aS,11bR,13aR,13bR)-5a,5b,8,8,11a-pentamethyl-3a-((3-oxo-3-(3,3,4,4-tetrafluoropyrrolidin-1-yl)propylamino)methyl)-1-(prop-1-en-2-yl)-2,3,3a,4,5,5a,5b,6,7,7a,8,11,11a,11b,12,13,13a,13b-octadecahydro-1H-cyclopenta[a]chrysen-9-yl)benzoic acid] | < 100 |
| C=C(C)[C@@H]1CC[C@]2(CNCCN(C(C)C)C(C)C)CC[C@]3(C)[C@H](CC[C@@H]4[C@@]5(C)CC=C(c6ccc(C(=O)O)cc6)C(C)(C)[C@@H]5CC[C@]43C)[C@@H]12 [Example 57, 4-((1R,3aS,5aR,5bR,7aR,11aS,11bR,13aR,13bR)-3a-((2-(diisopropylamino)ethylamino)methyl)-5a,5b,8,8,11a-pentamethyl-1-(prop-1-en-2-yl)-2,3,3a,4,5,5a,5b,6,7,7a,8,11,11a,11b,12,13,13a,13b-octadecahydro-1H-cyclopenta[a]chrysen-9-yl)benzoic acid] | < 100 |
| C=C(C)[C@@H]1CC[C@]2(CNCCCN3CCS(=O)(=O)CC3)CC[C@]3(C)[C@H](CC[C@@H]4[C@@]5(C)CC=C(c6ccc(C(=O)O)cc6F)C(C)(C)[C@@H]5CC[C@]43C)[C@@H]12 [Example 92, 4-((1R,3aS,5aR,5bR,7aR,11aS,11bR,13aR,13bR)-3a-(((3-(1,1-dioxido-4-thiomorpholinyl)propyl)amino)methyl)-1-isopropenyl-5a,5b,8,8,11a-pentamethyl-2,3,3a,4,5,5a,5b,6,7,7a,8,11,11a,11b,12,13,13a,13b-octadecahydro-1H-cyclopenta[a]chrysen-9-yl)-3-fluorobenzoic acid] | < 100 |
| C=C(C)[C@@H]1CC[C@]2(CNCCn3ccnc3)CC[C@]3(C)[C@H](CC[C@@H]4[C@@]5(C)CC=C(c6ccc(C(=O)O)cc6)C(C)(C)[C@@H]5CC[C@]43C)[C@@H]12 [Example 20, 4-((1R,3aS,5aR,5bR,7aR,11aS,11bR,13aR,13bR)-3a-((2-(1H-imidazol-1-yl)ethylamino)methyl)-5a,5b,8,8,11a-pentamethyl-1-(prop-1-en-2-yl)-2,3,3a,4,5,5a,5b,6,7,7a,8,11,11a,11b,12,13,13a,13b-octadecahydro-1H-cyclopenta[a]chrysen-9-yl)benzoic acid] | < 100 |
| C=C(C)[C@@H]1CC[C@]2(CNC(=O)NCCN3CCS(=O)(=O)CC3)CC[C@]3(C)[C@H](CC[C@@H]4[C@@]5(C)CC=C(c6ccc(C(=O)O)cc6)C(C)(C)[C@@H]5CC[C@]43C)[C@@H]12 [Example 161, 4-((1R,3aS,5aR,5bR,7aR,11aS,11bR,13aR,13bR)-3a-((((2-(1,1-dioxido-4-thiomorpholinyl)ethyl)carbamoyl)amino)methyl)-1-isopropenyl-5a,5b,8,8,11a-pentamethyl-2,3,3a,4,5,5a,5b,6,7,7a,8,11,11a,11b,12,13,13a,13b-octadecahydro-1H-cyclopenta[a]chrysen-9-yl)benzoic acid] | < 100 |
| C=C(C)[C@@H]1CC[C@]2(CNCCN3CCNCC3)CC[C@]3(C)[C@H](CC[C@@H]4[C@@]5(C)CC=C(c6ccc(C(=O)O)cc6)C(C)(C)[C@@H]5CC[C@]43C)[C@@H]12 [Example 8, 4-((1R,3aS,5aR,5bR,7aR,11aS,11bR,13aR,13bR)-5a,5b,8,8,11a-pentamethyl-3a-((2-(piperazin-1-yl)ethylamino)methyl)-1-(prop-1-en-2-yl)-2,3,3a,4,5,5a,5b,6,7,7a,8,11,11a,11b,12,13,13a,13b-octadecahydro-1H-cyclopenta[a]chrysen-9-yl)benzoic acid] | < 100 |
| C=C(C)[C@@H]1CC[C@]2(CNCCC(=O)N3CCN(CCS(C)(=O)=O)CC3)CC[C@]3(C)[C@H](CC[C@@H]4[C@@]5(C)CC=C(c6ccc(C(=O)O)cc6)C(C)(C)[C@@H]5CC[C@]43C)[C@@H]12 [Example 124, 4-((1R,3aS,5aR,5bR,7aR,11aS,11bR,13aR,13bR)-5a,5b,8,8,11a-pentamethyl-3a-((3-(4-(2-(methylsulfonyl)ethyl)piperazin-1-yl)-3-oxopropylamino)methyl)-1-(prop-1-en-2-yl)-2,3,3a,4,5,5a,5b,6,7,7a,8,11,11a,11b,12,13,13a,13b-octadecahydro-1H-cyclopenta[a]chrysen-9-yl)benzoic acid] | < 100 |
| C=C(C)[C@@H]1CC[C@]2(CNCCCN3CCCC3=O)CC[C@]3(C)[C@H](CC[C@@H]4[C@@]5(C)CC=C(c6ccc(C(=O)O)cc6)C(C)(C)[C@@H]5CC[C@]43C)[C@@H]12 [Example 58, 4-((1R,3aS,5aR,5bR,7aR,11aS,11bR,13aR,13bR)-5a,5b,8,8,11a-pentamethyl-3a-((3-(2-oxopyrrolidin-1-yl)propylamino)methyl)-1-(prop-1-en-2-yl)-2,3,3a,4,5,5a,5b,6,7,7a,8,11,11a,11b,12,13,13a,13b-octadecahydro-1H-cyclopenta[a]chrysen-9-yl)benzoic acid] | < 100 |
| C=C(C)[C@@H]1CC[C@]2(CNC(CC(=O)O)C(=O)N3CCC(F)(F)C3)CC[C@]3(C)[C@H](CC[C@@H]4[C@@]5(C)CC=C(c6ccc(C(=O)O)cc6)C(C)(C)[C@@H]5CC[C@]43C)[C@@H]12 (stereo partly drawn) [Example 131, 4-((1R,3aS,5aR,5bR,7aR,11aS,11bR,13aR,13bR)-3a-((3-carboxy-1-(3,3-difluoropyrrolidin-1-yl)-1-oxopropan-2-ylamino)methyl)-5a,5b,8,8,11a-pentamethyl-1-(prop-1-en-2-yl)-2,3,3a,4,5,5a,5b,6,7,7a,8,11,11a,11b,12,13,13a,13b-octadecahydro-1H-cyclopenta[a]chrysen-9-yl)benzoic acid] | < 100 |
| C=C(C)[C@@H]1CC[C@]2(CNCCCN3CCCC3=O)CC[C@]3(C)[C@H](CC[C@@H]4[C@@]5(C)CC=C(c6ccc(C(=O)O)cc6F)C(C)(C)[C@@H]5CC[C@]43C)[C@@H]12 [Example 87, 3-fluoro-4-((1R,3aS,5aR,5bR,7aR,11aS,11bR,13aR,13bR)-5a,5b,8,8,11a-pentamethyl-3a-((3-(2-oxopyrrolidin-1-yl)propylamino)methyl)-1-(prop-1-en-2-yl)-2,3,3a,4,5,5a,5b,6,7,7a,8,11,11a,11b,12,13,13a,13b-octadecahydro-1H-cyclopenta[a]chrysen-9-yl)benzoic acid] | < 100 |
| C=C(C)[C@@H]1CC[C@]2(CNC(=O)[C@H](N)CCS(C)(=O)=O)CC[C@]3(C)[C@H](CC[C@@H]4[C@@]5(C)CC=C(c6ccc(C(=O)O)cc6)C(C)(C)[C@@H]5CC[C@]43C)[C@@H]12 [Example 135, 4-((1R,3aS,5aR,5bR,7aR,11aS,11bR,13aR,13bR)-3a-(((R)-2-amino-4-(methylsulfonyl)butanamido)methyl)-5a,5b,8,8,11a-pentamethyl-1-(prop-1-en-2-yl)-2,3,3a,4,5,5a,5b,6,7,7a,8,11,11a,11b,12,13,13a,13b-octadecahydro-1H-cyclopenta[a]chrysen-9-yl)benzoic acid] | < 100 |

Reference: patent US8748415B2 (priority 2011, dated 2014)
